The values below come from ChEMBL document CHEMBL2074249, “Fruit juices inhibit organic anion transporting polypeptide-mediated drug uptake to decrease the oral availability of fexofenadine” (Clin Pharmacol Ther, 2002).

Common to all, as to assay type: functional, cell-based
The target in data set [1] is T1, Oatp3 (Solute carrier organic anion transporter family member 1A5) (Rattus norvegicus, UniProt O88397).
T1 sequence (O88397 whole entry): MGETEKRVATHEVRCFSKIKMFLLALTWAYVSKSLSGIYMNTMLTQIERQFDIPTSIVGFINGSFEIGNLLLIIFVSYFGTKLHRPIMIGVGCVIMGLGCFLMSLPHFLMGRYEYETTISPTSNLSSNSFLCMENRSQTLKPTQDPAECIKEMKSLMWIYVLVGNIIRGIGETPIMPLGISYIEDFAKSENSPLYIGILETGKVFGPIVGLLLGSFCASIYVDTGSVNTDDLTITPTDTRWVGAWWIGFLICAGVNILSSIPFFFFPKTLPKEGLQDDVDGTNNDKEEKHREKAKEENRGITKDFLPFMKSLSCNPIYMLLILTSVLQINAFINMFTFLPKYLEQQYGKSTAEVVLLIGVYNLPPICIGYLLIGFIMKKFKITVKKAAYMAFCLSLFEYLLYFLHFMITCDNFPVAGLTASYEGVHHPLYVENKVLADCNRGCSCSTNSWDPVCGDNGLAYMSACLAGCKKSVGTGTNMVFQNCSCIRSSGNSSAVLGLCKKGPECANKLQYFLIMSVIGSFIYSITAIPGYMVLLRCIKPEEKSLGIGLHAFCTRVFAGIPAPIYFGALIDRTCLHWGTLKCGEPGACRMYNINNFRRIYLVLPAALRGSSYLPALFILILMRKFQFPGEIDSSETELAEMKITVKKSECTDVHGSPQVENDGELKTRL
In words: TP_TRANSPORTER: inhibition of Fexofenadine uptake (Fexofenadine: 1? uM, 6',7'-Dihydroxybergamottin: 50 uM) in Oatp3-expressing HeLa cells. The arrangement: scale not given: the % may be the effect or the level left. Particulars: human, HeLa cells that express Oatp3, probe fexofenadine; read-out: Activity.

Data set [2] concerns the target T1, Oatp3 (Solute carrier organic anion transporter family member 1A5). Description: TP_TRANSPORTER: inhibition of Fexofenadine uptake (Fexofenadine: 1? uM, Bergamottin: 50 uM) in Oatp3-expressing HeLa cells. Also noted: scale not given: the % may be the effect or the level left. The following applies: human, HeLa cells that express Oatp3, probe fexofenadine; read-out: Activity.

Data set [3] has the same target. In words: TP_TRANSPORTER: inhibition of Fexofenadine uptake (Fexofenadine: 1? uM, 5-Methoxypsoralen: 50 uM) in Oatp3-expressing HeLa cells. The arrangement: scale not given: the % may be the effect or the level left. The following applies: human, HeLa cells that express Oatp3, probe fexofenadine; read-out: Activity.
Data set [4] shares this target. In words: TP_TRANSPORTER: inhibition of Fexofenadine uptake (Fexofenadine: 1? uM, Hesperitin: 5 uM) in Oatp3-expressing HeLa cells. The arrangement: scale not given: the % may be the effect or the level left. The following applies: human, HeLa cells that express Oatp3, probe fexofenadine; read-out: Activity.
Data set [5] has the same target. Description: TP_TRANSPORTER: inhibition of Fexofenadine uptake (Fexofenadine: 1? uM, Hesperidin: 50 uM) in Oatp3-expressing HeLa cells. The arrangement: scale not given: the % may be the effect or the level left. The following applies: human, HeLa cells that express Oatp3, probe fexofenadine; read-out: Activity.
For data set [6] the target is unchanged. In words: TP_TRANSPORTER: inhibition of Fexofenadine uptake (Fexofenadine: 1? uM, Naringenin: 50 uM) in Oatp3-expressing HeLa cells. Also noted: scale not given: the % may be the effect or the level left. Particulars: human, HeLa cells that express Oatp3, probe fexofenadine; read-out: Activity.
The target is the same in data set [7]. Description: TP_TRANSPORTER: inhibition of Fexofenadine uptake (Fexofenadine: 1? uM, Naringin: 5 uM) in Oatp3-expressing HeLa cells. Also noted: scale not given: the % may be the effect or the level left. Particulars: human, HeLa cells that express Oatp3, probe fexofenadine; read-out: Activity.
For data set [8] the target is unchanged. In words: TP_TRANSPORTER: inhibition of Fexofenadine uptake (Fexofenadine: 1? uM, Quercetin: 5 uM) in Oatp3-expressing HeLa cells. The arrangement: scale not given: the % may be the effect or the level left. The following applies: human, HeLa cells that express Oatp3, probe fexofenadine; read-out: Activity.
In data set [9] the target is T2, Solute carrier organic anion transporter family member 1A1 (Rattus norvegicus, UniProt P46720).
T2 sequence (P46720 whole entry): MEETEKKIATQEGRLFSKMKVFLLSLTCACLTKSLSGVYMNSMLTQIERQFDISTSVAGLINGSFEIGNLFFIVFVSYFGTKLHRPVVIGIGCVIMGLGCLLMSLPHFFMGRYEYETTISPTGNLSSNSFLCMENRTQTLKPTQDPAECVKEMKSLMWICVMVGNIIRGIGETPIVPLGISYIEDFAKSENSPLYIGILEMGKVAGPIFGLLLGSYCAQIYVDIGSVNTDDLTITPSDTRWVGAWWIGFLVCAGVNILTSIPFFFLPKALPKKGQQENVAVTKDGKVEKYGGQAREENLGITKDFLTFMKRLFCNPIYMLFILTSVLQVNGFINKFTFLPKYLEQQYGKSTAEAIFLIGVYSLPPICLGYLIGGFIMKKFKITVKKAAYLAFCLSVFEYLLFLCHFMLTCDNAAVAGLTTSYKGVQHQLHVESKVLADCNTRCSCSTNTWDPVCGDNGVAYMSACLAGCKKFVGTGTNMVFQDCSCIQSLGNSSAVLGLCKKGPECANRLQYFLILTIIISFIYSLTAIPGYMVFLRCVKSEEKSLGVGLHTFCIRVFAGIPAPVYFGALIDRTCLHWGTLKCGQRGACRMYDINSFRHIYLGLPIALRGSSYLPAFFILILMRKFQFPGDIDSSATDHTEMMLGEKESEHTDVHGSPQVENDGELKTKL
In words: TP_TRANSPORTER: inhibition of Fexofenadine uptake (Fexofenadine: 1 uM, Apple juice: 5 %) in Oatp1-expressing HeLa cells. The following applies: human.

Data set [10] concerns the target T3, Solute carrier organic anion transporter family member 1A5 (Rattus norvegicus, UniProt O88397).
T3 sequence (O88397 whole entry): T1 sequence (O88397 whole entry)
In words: TP_TRANSPORTER: inhibition of Fexofenadine uptake (Fexofenadine: 1 uM, Apple juice: 5 %) in Oatp3-expressing HeLa cells. Particulars: human.

The target in data set [11] is ATP-dependent translocase ABCB1 (Homo sapiens, UniProt P08183). Description: TP_TRANSPORTER: inhibition of Vinblastine transepithelial transport (basal to apical) (Vinblastine: 5 uM, Grapefruit juice: 5 %) in MDR1-expressing LLC-PK1 cells. Particulars: pig.
The target of data set [12] is T2, Solute carrier organic anion transporter family member 1A1. Description: TP_TRANSPORTER: inhibition of Fexofenadine uptake (Fexofenadine: 1 uM, Grapefruit juice: 5 %) in Oatp1-expressing HeLa cells. Particulars: human.
The target of data set [13] is T4, Solute carrier organic anion transporter family member 1A2 (Homo sapiens, UniProt P46721).
T4 sequence (P46721 whole entry): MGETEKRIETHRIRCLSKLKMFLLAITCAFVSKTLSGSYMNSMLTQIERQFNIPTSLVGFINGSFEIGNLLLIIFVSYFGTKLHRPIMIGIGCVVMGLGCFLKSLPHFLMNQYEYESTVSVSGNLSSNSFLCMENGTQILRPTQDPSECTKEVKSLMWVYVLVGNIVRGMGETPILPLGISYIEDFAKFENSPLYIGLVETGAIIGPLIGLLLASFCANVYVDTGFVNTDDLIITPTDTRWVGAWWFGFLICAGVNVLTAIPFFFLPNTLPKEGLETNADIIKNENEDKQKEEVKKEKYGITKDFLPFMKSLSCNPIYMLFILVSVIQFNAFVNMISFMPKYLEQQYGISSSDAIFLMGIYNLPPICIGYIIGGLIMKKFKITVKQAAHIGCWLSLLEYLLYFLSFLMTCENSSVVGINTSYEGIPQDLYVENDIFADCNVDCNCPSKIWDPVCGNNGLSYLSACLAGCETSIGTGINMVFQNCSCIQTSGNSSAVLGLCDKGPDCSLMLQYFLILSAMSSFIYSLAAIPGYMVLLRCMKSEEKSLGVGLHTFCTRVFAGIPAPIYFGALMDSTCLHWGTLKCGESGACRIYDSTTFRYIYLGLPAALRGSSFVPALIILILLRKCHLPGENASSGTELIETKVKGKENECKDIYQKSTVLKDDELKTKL
In words: TP_TRANSPORTER: inhibition of Fexofenadine uptake (Fexofenadine: 1 uM, Grapefruit juice: 5 %) in OATP-A-expressing HeLa cells.

Data set [14] has as its target T5, Solute carrier organic anion transporter family member 1A4 (Rattus norvegicus, UniProt O35913).
T5 sequence (O35913 whole entry): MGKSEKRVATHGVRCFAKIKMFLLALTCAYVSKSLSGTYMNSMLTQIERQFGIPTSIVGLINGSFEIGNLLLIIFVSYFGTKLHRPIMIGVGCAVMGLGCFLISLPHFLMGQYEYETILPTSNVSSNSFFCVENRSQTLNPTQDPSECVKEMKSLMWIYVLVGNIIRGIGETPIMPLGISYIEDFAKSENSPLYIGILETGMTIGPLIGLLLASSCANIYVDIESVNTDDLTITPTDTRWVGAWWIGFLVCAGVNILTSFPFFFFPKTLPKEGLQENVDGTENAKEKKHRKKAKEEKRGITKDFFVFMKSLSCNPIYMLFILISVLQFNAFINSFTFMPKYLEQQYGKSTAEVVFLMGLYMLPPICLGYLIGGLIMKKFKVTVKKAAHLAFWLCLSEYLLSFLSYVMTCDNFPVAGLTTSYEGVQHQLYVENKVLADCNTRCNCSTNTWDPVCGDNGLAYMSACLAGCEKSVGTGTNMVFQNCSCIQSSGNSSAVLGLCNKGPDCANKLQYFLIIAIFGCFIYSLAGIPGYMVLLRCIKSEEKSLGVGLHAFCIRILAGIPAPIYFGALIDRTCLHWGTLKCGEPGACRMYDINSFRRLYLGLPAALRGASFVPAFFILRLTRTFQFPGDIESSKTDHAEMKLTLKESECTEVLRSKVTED
In words: TP_TRANSPORTER: inhibition of Fexofenadine uptake (Fexofenadine: 1 uM, Grapefruit juice: 5 %) in Oatp2-expressing HeLa cells. The following applies: human.

The target of data set [15] is T2, Solute carrier organic anion transporter family member 1A1. Description: TP_TRANSPORTER: inhibition of Fexofenadine uptake (Fexofenadine: 1 uM, Orange juice: 5 %) in Oatp1-expressing HeLa cells. Particulars: human.
Data set [16] addresses T4, Solute carrier organic anion transporter family member 1A2. Description: TP_TRANSPORTER: inhibition of Fexofenadine uptake (Fexofenadine: 1 uM, Orange juice: 5 %) in OATP-A-expressing HeLa cells.
For data set [17], the target named is T3, Solute carrier organic anion transporter family member 1A5. In words: TP_TRANSPORTER: inhibition of Fexofenadine uptake (Fexofenadine: 1 uM, Orange juice: 5 %) in Oatp3-expressing HeLa cells. Particulars: human.
The target of data set [18] is T5, Solute carrier organic anion transporter family member 1A4. In words: TP_TRANSPORTER: inhibition of Fexofenadine uptake (Fexofenadine: 1 uM, Orange juice: 5 %) in Oatp2-expressing HeLa cells. Particulars: human.

Sequence of ATP-dependent translocase ABCB1 (P08183 whole entry): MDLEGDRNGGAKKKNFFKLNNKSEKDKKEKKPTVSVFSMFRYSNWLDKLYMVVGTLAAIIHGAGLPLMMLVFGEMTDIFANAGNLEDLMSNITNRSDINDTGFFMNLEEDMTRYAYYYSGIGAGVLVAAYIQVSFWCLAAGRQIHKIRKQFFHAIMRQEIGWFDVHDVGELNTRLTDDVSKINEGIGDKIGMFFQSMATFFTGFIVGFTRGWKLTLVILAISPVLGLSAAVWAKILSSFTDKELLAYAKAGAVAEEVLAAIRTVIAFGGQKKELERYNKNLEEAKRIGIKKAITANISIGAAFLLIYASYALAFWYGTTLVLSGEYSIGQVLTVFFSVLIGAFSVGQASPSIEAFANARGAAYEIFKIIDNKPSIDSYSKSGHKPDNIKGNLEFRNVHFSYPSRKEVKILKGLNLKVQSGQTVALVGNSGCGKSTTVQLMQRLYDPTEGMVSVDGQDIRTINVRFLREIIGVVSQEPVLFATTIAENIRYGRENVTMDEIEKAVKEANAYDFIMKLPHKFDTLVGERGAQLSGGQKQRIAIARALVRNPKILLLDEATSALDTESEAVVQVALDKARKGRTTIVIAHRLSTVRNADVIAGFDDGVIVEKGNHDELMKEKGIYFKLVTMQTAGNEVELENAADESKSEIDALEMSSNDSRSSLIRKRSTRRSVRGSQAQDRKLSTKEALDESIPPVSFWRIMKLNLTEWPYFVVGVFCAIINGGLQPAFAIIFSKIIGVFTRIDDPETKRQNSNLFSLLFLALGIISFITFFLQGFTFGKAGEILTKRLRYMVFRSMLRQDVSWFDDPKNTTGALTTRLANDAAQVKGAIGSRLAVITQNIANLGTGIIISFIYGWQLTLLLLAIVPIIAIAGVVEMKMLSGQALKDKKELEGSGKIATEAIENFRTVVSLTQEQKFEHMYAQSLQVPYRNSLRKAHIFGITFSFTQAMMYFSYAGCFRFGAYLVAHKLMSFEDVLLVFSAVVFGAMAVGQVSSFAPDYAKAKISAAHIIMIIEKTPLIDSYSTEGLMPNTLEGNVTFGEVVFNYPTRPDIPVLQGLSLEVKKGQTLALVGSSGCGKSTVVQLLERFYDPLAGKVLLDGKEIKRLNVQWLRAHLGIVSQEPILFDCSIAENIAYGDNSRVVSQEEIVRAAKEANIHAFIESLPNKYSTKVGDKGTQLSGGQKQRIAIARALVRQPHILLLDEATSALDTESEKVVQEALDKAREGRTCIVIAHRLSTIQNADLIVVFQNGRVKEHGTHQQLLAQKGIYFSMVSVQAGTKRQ

Take `C/C(=C\COc1c2ccoc2cc2oc(=O)ccc12)CC[C@@H](O)C(C)(C)O`: the activity at 50 µM in data set [1] came to 22%.
`CC(C)=CCC/C(C)=C/COc1c2ccoc2cc2oc(=O)ccc12` [BERGAMOTTIN]: the activity at 50 µM in data set [2] was 22%.
Regarding `COc1c2ccoc2cc2oc(=O)ccc12` [BERGAPTEN], in data set [3], the activity at 50 µM turned out to be 32%.
With `COc1ccc([C@@H]2CC(=O)c3c(O)cc(O)cc3O2)cc1O` [HESPERETIN], in data set [4], the activity at 5 µM was found to be 40%.
Take `COc1ccc([C@@H]2CC(=O)c3c(O)cc(O[C@@H]4O[C@H](CO[C@@H]5O[C@@H](C)[C@H](O)[C@@H](O)[C@H]5O)[C@@H](O)[C@H](O)[C@H]4O)cc3O2)cc1O` [HESPERIDIN]: the activity at 50 µM in data set [5] came to 51%.
Turning to `O=C1C[C@@H](c2ccc(O)cc2)Oc2cc(O)cc(O)c21` [NARINGENIN], the activity at 50 µM in data set [6] was 10%.
Turning to `C[C@@H]1O[C@@H](O[C@H]2[C@H](Oc3cc(O)c4c(c3)O[C@H](c3ccc(O)cc3)CC4=O)O[C@H](CO)[C@@H](O)[C@@H]2O)[C@H](O)[C@H](O)[C@H]1O` [NARINGIN], the activity at 5 µM in [7] was determined as 36%.
For the compound `O=c1c(O)c(-c2ccc(O)c(O)c2)oc2cc(O)cc(O)c12` [QUERCETIN], in data set [8], the activity at 5 µM was 52%.
Take APPLE JUICE: the Activity result in data set [9] and in data set [10] was “inhibitor [(at a rough estimate) 5 % of control]” in each case.
In the case of GRAPEFRUIT JUICE, the Activity entry in [11] was “is not an inhibitor [-]”; in data set [12], “inhibitor [(at a rough estimate) <0 % of control]”; in data set [13], “inhibitor [(at a rough estimate) 10 % of control]”; in data set [14], “inhibitor [(at a rough estimate) 20 % of control]”.
As to ORANGE JUICE, the Activity entry in data set [15] was “inhibitor [(at a rough estimate) 25 % of control]”; in data set [16], “inhibitor [(at a rough estimate) 10 % of control]”; in [17], “inhibitor [(at a rough estimate) 10 % of control]”; in [18], “inhibitor [(at a rough estimate) <5 % of control]”.
